The source of these data is patent US12077555B2, “STAT degraders and uses thereof” (Kymera Therapeutics, Inc., priority 2019, dated 2024).

Type in all cases: cell-based
One test deals with STAT3 (Homo sapiens, UniProt P40763). As to the kind of experiment: STAT3 degradation (DC50) in multiple ALK+ALCL cell lines. As to conditions: dose response curves, FIG. 14.
The test system of the next test is KARPAS-299 cells. Put plainly: CellTiter-Glo cell viability, KARPAS-299.
The test system of the next test is ALK+ALCL cell lines. As to the kind of experiment: growth inhibition in multiple ALK+ALCL cell lines. Conditions: dose response curves, FIG. 16.
The next test deals with SU-DHL-1 cells. As to the kind of experiment: CellTiter-Glo cell viability, SU-DHL-1. As to the method: Compound-mediated viability effect on MOLM-16 and SU-HDL-1 cells was quantitatively determined using the CellTiter-Glo® Luminescent Cell Viability Assay kit from Promega (Catalog number G7572) following manufacturer's recommended procedures.
Day 0: 60 nL of compounds/DMSO were stamped to the cell plate as on the recommended platemap. Compound precipitation was observed. Cells were centrifuged at 800 rpm for 5 min, suspended with culture medium, and counted with Countess (Invitrogen). The cell density was adjusted to the recommend concentration. 30 μL of cell solution (2000 cells/well) was added to the assay plate according to the platemap. 30 μL of media was added to column 2 and column 23 as on the platemap. The final concentration of the compounds except for the reference compound Paclitaxel was from 10 μM, 3-fold dilution and 11 dose (Paclitaxel started at 500 nM). The final DMSO concentration was 0.2%. The assay plate was incubated at 37° C., 5% CO2 for 4 days.
Day 4: The assay plate was equilibrated to RT for ˜10 minutes. Compound precipitation was observed (96h). To determine cell viability, 30 μL of CellTiter Glo reagent was added to each well and the assay plate was centrifuged at 1000 rpm for 30 second, incubated at room temperature for 10 min, and analyzed by detecting the luminescence using a multimode plate reader (EnVision 2105, PerkinElmer). The data was then analyzed by software Prism 7.0 from GraphPad and the dose response curves were fit using a three-parameter logistic equation to calculate EC50.
In general terms: In ATP-based viability assays light output follows the ATP content of the culture.

In a further test the test system is SUP-M2 cells. Put plainly: CellTiter-Glo cell viability, SUP-M2.

STAT3, sequence (P40763 whole entry): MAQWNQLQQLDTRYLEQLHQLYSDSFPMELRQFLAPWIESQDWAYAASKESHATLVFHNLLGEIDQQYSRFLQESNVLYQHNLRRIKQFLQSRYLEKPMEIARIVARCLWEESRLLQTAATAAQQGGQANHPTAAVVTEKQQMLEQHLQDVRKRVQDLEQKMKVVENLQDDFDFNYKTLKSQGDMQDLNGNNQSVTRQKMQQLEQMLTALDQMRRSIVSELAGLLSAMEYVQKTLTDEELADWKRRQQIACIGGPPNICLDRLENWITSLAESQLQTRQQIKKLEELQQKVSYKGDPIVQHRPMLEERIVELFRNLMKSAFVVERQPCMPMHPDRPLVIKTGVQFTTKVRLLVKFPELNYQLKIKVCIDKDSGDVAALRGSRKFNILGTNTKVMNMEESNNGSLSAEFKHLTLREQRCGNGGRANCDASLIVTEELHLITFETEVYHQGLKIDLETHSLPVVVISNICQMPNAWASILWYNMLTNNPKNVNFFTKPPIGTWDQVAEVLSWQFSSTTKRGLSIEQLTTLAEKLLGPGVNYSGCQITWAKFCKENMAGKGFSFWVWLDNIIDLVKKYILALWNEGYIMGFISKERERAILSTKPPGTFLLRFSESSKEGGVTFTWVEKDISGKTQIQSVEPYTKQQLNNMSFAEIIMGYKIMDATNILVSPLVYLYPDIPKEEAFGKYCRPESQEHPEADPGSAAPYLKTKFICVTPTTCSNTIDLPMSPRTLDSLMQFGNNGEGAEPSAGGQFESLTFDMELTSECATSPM

With `Cn1c(=O)n(C2CCC(=O)NC2=O)c2ccc(C[C@H]3CC[C@@H](CC(=O)N4CC[C@H]5CC[C@@H](C(=O)N[C@@H](CCC(N)=O)C(=O)NC(c6ccccc6)c6ccccc6)N5C(=O)[C@@H](NC(=O)c5cc6cc(C(=O)P(=O)(O)O)ccc6[nH]5)C4)CC3)cc21` (stereo partly drawn) [Compound I-174, 2-[[(5S,8S,10aR)-8-[[(1S)-3-carbamoyl-1-(diphenylmethylcarbamoyl)propyl]carbamoyl]-6-oxo-3-[2-[(1s,4s)-4-[[1-(2,6-dioxopiperidin-3-yl)-3-methyl-2-oxo-1,3-benzodiazol-5-yl]methyl]cyclohexyl]acetyl]-octahydropyrrolo[1,2-a][1,5]diazocin-5-yl]carbamoyl]-1H-indole-5-carbonylphosphonic acid], at STAT3, the “degradation in multiple ALK+ALCL cell lines” value is given as “mediated degradation”. The half-maximal inhibitory concentration (IC50) in the test with KARPAS-299 cells (Homo sapiens, 96 h, KARPAS-299, ALCL (ALK+), Day 4, read-out: CTG, IC50 μM, Day 4) was 0.084 µM; in the test on SU-DHL-1 cells (Homo sapiens, 96 h, SU-DHL-1, ALCL (ALK+), Day 4, read-out: CTG, IC50 μM, Day 4) it was 0.015 µM; in the test with SUP-M2 cells (96 h, SUP-M2, ALCL (ALK+), Day 4, read-out: CTG, IC50 μM, Day 4) it was 0.086 µM. For the same compound, the “CTG (% Max inh), Day 4” value in the test with KARPAS-299 cells (KARPAS-299, ALCL (ALK+), Day 4) is “(90) %”; in the test on SU-DHL-1 cells (SU-DHL-1, ALCL (ALK+), Day 4) it was “(>95) %”; in the test with SUP-M2 cells (SUP-M2, ALCL (ALK+), Day 4), “(95) %”. For the same compound, the cell proliferation entry in the test with KARPAS-299 cells (KARPAS-299, FIG. 16) is given as “inhibit”; in the test with SU-DHL-1 cells (SU-DHL-1, FIG. 5B, FIG. 16) it was “inhibit”; in the test with SUP-M2 cells (SUP-M2, FIG. 16) it was “inhibit”. Also, in the test with ALK+ALCL cell lines, the “growth inhibition in multiple ALK+ALCL cell lines” value is reported as “mediated growth inhibition”.

A word on the IC50: it is the point on the concentration scale where inhibition reaches its midpoint.
